Read-outs that look alike come from different tables or passages of the source.
What was measured:
ShET-1 and ShET-2 [1] = type: cell-based, Shigella flexneri 2a
Shiga toxin [2] = molecular target: T1, Shiga toxin (Shigella dysenteriae, UniProt Q7BQ98+Q9FBI2); type: cell-based, Shigella dysenteriae 1
stable toxin (YST-I) = stable toxin (YST-I) (Yersinia enterocolitica, UniProt P07593); test: Ussing chamber assay, effect of cadaverine on YST-I; type: cell-based
stable toxin (YST-11) = test: Ussing chamber assay, effect of cadaverine on YST-11; type: cell-based, Yersinia enterocolitica; details: toxin mucosal side; cadaverine (400 μM) both sides
[3] = system: cytolethal distending toxin; test: Ussing chamber assay, effect of cadaverine on cytolethal distending toxin; type: cell-based, Campylobacter jejuni
cholera toxin = cholera toxin (Vibrio cholerae serotype O1, UniProt P01555+P01556); type: cell-based
Chain of cholera toxin (P01555 19-258 limits assumed): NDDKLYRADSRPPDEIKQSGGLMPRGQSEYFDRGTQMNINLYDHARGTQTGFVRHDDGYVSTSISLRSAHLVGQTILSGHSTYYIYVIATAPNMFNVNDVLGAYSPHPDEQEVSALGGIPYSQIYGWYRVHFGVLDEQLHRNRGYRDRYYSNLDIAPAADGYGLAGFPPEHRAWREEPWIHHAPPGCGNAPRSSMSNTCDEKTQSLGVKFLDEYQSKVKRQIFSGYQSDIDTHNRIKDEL
Chain of cholera toxin (P01556 22-124 limits assumed): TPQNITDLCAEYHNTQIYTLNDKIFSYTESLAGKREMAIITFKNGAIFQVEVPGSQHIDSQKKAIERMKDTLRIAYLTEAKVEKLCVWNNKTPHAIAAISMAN

heat stable toxin (STa) = test: Ussing chamber assay, effect of cadaverine on heat stable toxin (STa); type: cell-based, enterotoxigenic Escherichia coli
Tsh-associated toxin = test: Ussing chamber assay, effect of cadaverine on Tsh-associated toxin; type: cell-based, avian pathogenic Escherichia coli; details: toxin mucosal side; cadaverine (400 μM) both sides
ShET-1 and ShET-2 [4] = test: Fluid accumulation in ileal loops, effect of cadaverine; type: in vivo, Shigella flexneri 2a; details: cadaverine 400 μM unless otherwise indicated
Shiga toxin [5] = molecular target: T1, Shiga toxin; details: cadaverine 400 μM unless otherwise indicated
BS103 = details: T84 monolayers, mean ± SEM
[6] = system: S. flexneri-induced PMN transepithelial migration; test: PMN transepithelial migration assay across T84 cell monolayers
[7] = system: S. flexneri 2a strain 2457T; type: cell-based, Shigella flexneri 2a; details: 2457T + 1 mM supplement present only during the two hour invasion period
mxiA::lacZ = type: cell-based, S. flexneri 2a
spa47::lacZ = type: cell-based, S. flexneri 2a
ipaB::lacZ = type: cell-based, S. flexneri 2a
[8] = system: representative virulence genes; type: cell-based, S. flexneri 2a
[9] = cadaverine 400 μM unless otherwise indicated
[10] = toxin mucosal side, cadaverine (400 μM) both sides

T1 sequence (Q9FBI2 23-315 limits assumed): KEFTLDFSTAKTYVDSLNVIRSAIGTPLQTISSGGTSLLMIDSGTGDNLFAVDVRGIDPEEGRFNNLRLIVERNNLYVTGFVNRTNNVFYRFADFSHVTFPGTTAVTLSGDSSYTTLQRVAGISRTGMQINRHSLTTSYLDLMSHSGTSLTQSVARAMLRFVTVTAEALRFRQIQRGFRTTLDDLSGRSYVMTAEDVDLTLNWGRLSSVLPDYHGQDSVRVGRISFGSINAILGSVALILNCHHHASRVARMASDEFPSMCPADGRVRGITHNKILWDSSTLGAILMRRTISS
T1 sequence (Q7BQ98 21-89 limits assumed): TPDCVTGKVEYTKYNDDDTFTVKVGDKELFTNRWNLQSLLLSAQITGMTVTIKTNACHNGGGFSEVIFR

Compound: NCCCCCN [cadaverine, 1,5-diaminopentane]
- Effect of Cadaverine, enterotoxicity in Ussing chambers (ShET-1 and ShET-2 [1]): blocked
- ΔIsc + cadaverine (ShET-1 and ShET-2 [1]): 2.7
- ΔIsc as % of the value in tissues not pretreated (ShET-1 and ShET-2 [1]): 40%
- Effect of Cadaverine, enterotoxicity in Ussing chambers (Shiga toxin [2]; [9]): blocked;
- ΔIsc + cadaverine (Shiga toxin [2]; [10]): −13.6
- Effect of Cadaverine, enterotoxicity in Ussing chambers (stable toxin (YST-I); [9]): completely
- ΔIsc + cadaverine (stable toxin (YST-I); [10]): −11.0
- ΔIsc + cadaverine (stable toxin (YST-11)): 32.4
- Effect of Cadaverine, enterotoxicity in Ussing chambers [3, 9]: completely
- ΔIsc + cadaverine [3, 10]: −18.7
- Effect of Cadaverine, enterotoxicity in Ussing chambers (cholera toxin; [9]): none
- ΔIsc + cadaverine (cholera toxin; [10]): 70.9
- Effect of Cadaverine, enterotoxicity in Ussing chambers (heat stable toxin (STa); [9]): none
- ΔIsc + cadaverine (heat stable toxin (STa); [10]): 75.9
- ΔIsc + cadaverine (Tsh-associated toxin): 23.3
- Effect of Cadaverine, fluid accumulation in ileal loops (ShET-1 and ShET-2 [4]): both completely
- Effect of Cadaverine, cytotoxicity in Vero cells (Shiga toxin [5]): none
- % Association BS103 (BS103; 100 μM cadaverine): 4.37 ± 1.64%
- % Internalization BS103 (BS103; 100 μM cadaverine): 0.08 ± 0.02%
- % Association BS103 (BS103; 300 μM cadaverine): 3.14 ± 0.75%
- % Internalization BS103 (BS103; 300 μM cadaverine): 0.03 ± 0.01%
- % Association BS103 (BS103; 500 μM cadaverine): 2.11 ± 0.90%
- % Internalization BS103 (BS103; 500 μM cadaverine): 0.01 ± 0.01%
- ability of S. flexneri to promote PMN transepithelial migration ([6]; 2457T added basolaterally together with cadaverine 100, 300 and 500 μM (FIG. 3)): dose dependent decrease
- down regulation of S. flexneri-induced PMN transepithelial migration ([6]; T84 infected with 2457T 1 hr, then apical cadaverine 300 μM 30 min (FIG. 5)): 60%

Compound: O=C(O)c1ccc[n+]([C@@H]2O[C@H](COP(=O)(O)O)[C@@H](O)[C@H]2O)c1 [nicotinic acid mononucleotide]
- % FIREWORKS [7]: 17%
- % INVASION [7]: 82%

Compound: O=C(O)c1cccnc1 [nicotinic acid]
- % FIREWORKS [7]: 17%
- % INVASION [7]: 85%

Compound: O=C(O)c1cccnc1C(=O)O [quinolinate]
- % FIREWORKS [7]: 0%
- % INVASION [7]: 0.5%
- Miller Units of activity (mxiA::lacZ): 196.5 ± 2.0 Miller Units
- Miller Units of activity (spa47::lacZ): 312.3 ± 6.5 Miller Units
- Miller Units of activity (ipaB::lacZ): 140.5 ± 2.9 Miller Units
- reduction of virulence gene expression [8]: about 50%
